In patent EP1803452A1, “ESTER DERIVATIVE AND PHARMACEUTICAL USE THEREOF” (Japan Tobacco, Inc., priority 2004, dated 2006):

Key:
[1] = Metabolic stability test in liver S9; assay type: in vitro ADME; conditions: pH 7.4, human liver S9 2 mg protein/mL, LC/MS; for remaining at 10 min: unchanged form after 10 minutes at 37°C, read-out: Remaining rate in human liver S9 (%/10min); for remaining at 1 h: unchanged form after 60 minutes at 37°C, read-out: Remaining rate in human liver S9 (%/60min)
Experimental: Human liver S9 (final concentration: 2 mg protein/mL), was suspended in 100 mM potassium phosphate buffer (pH 7.4, containing β-nicotinamide adenine dinucleotide phosphate: 1.3 mM, D-glucose-6- phosphate: 3.3 mM, magnesium chloride: 3.3 mM, glucose-6-phosphate dehydrogenase:0.4 U/mL). The suspension was mixed with a solution of a sample dissolved in DMSO. The solution was incubated at 37°C for 0, 10 and 60 minutes, and an acetonitrile containing formic acid (final concentration: 0.1%) was added thereto. The solutions were centrifuged, and the concentration of the sample (unchanged form) in the supernatant was determined by high performance liquid chromatography/mass spectrometry (LC/MS). Based on the data obtained, remaining rate (%) was calculated according to the following equation. Remaining rate(%) = amount of sample 0,10, or 60 minutes after [formula] incubation/amount of sample at zero time after incubation × 100 [formula]
(§1) With respect to the compounds obtained in Working Examples according to the present invention (Compounds 1-1 to 1-115, 2-1, 3-1, 3-2, and 4-1 to 4-4), the results of the remaining rate in human liver S9 and plasma are shown in Tables 28 to 32.

[2] = Metabolic stability test in plasma; assay type: in vitro ADME, human; conditions: LC/MS; for remaining at 10 min: unchanged form after 10 minutes at 37°C in human plasma, read-out: Remaining rate in human plasma (%/10min); for remaining at 1 h: unchanged form after 60 minutes at 37°C in human plasma, read-out: Remaining rate in human plasma (%/60min)
Experimental: A sample dissolved in DMSO was added to plasma of human or animal species (mouse and hamster). The solutions were incubated at 37°C for 0, 10 and 60 minutes, and acetonitrile containing formic acid (final concentration: 0.1%) was added thereto. The solutions were centrifuged, and the concentration of the sample (unchanged form) in the supernatant was determined by high performance liquid chromatography/mass spectrometry (LC/MS). Based on the data obtained, the remaining rate (%) was calculated according to the following equation. Remaining rate(%) = amount of sample 0,10, or 60 minutes after incubation/amount of sample at zero time after incubation × 100 [formula]
as §1

[3] = Stability test in buffer (pH 7.4); assay type: physicochemical; conditions: phosphate buffer/acetonitrile 7:3, 100 mM potassium phosphate buffer (pH 7.4) and acetonitrile 7:3 (v/v), LC/MS; for remaining at 10 min: 10 minutes at 37°C, read-out: Buf. remaining rate (%/10min); for remaining at 1 h: 60 minutes at 37°C, read-out: Buf. remaining rate (%/60min)
Experimental: In the tables, Buf. remaining rate was determined by stability test in buffer (pH 7.4) as described below. A sample dissolved in DMSO was mixed with a mixed solution of 100 mM potassium phosphate buffer and acetonitrile in the ratio of 7:3 (v/v). The mixture was incubated at 37°C for 0, 10, and 60 minutes, and acetonitrile containing formic acid (final concentration: 0.1%) was added thereto. The solution was centrifuged, and the concentration of the sample (unchanged form) in the supernatant was determined by high performance liquid chromatography/mass spectrometry (LC/MS). Based on the data obtained, Buf. remaining rate (%) was calculated according to the following equation. Buf.remaining rate(%) = amount of sample 0,10, or 60 minutes after incubation/amount of sample at zero time after incubation × 100 [formula]

Structure (SMILES) | remaining at 10 min [1] [%] | remaining at 1 h [1] [%] | remaining at 10 min [2] [%] | remaining at 1 h [2] [%] | remaining at 10 min [3] [%] | remaining at 1 h [3] [%]
COC(=O)c1ccc(OC(=O)CCCc2ccc(NC(=O)c3ccccc3-c3ccc(C(F)(F)F)cc3)c(C(=O)N(C)C)c2)cc1 [Compound 1-5, 4-(4-(3-dimethylcarbamoyl-4-[(4'-trifluoromethylbiphenyl-2-carbonyl)amino]phenyl}butyryloxy)benzoic acid methyl ester] | 0 | 0 | 11 | 0 | 100 | 101
CCOC(=O)c1ccc(OC(=O)CCCc2ccc(NC(=O)c3ccc(C)nc3-c3ccc(C(F)(F)F)cc3)c(C(=O)N(C)C)c2)cc1 [Compound 1-71, 4-[4-(3-dimethylcarbamoyl-4-{[6-methyl-2-(4-trifluoromethylphenyl)pyridine-3-carbonyl]amino}phenyl)butyryloxy]benzoic acid ethyl ester] | 0 | 0 | 53 | 0 | 102 | 105
Cc1cccc(COC(=O)c2ccc(OC(=O)CCCc3ccc(NC(=O)c4ccccc4-c4ccc(C(F)(F)F)cc4)c(C(=O)N(C)C)c3)cc2)n1 [Compound 1-101, 4-[4-(3-dimethylcarbamoyl-4-{(4'-trifluoromethylbiphenyl-2-carbonyl)amino}phenyl)butyryloxy]benzoic acid 6-methylpyridin-2-ylmethyl ester] | 3 | 0 | 42 | 0 | 100 | 103
COC(=O)c1ccc(OC(=O)CCCc2ccc(NC(=O)c3ccccc3-c3ccc(C(F)(F)F)cc3)c(C(=O)N3CCCC3)c2)cc1 [Compound 1-15, 4-(4-{3-(pyrrolidine-1-carbonyl)-4-[(4'-trifluoromethylbiphenyl-2-carbonyl)amino]phenyl}butyryloxy)benzoic acid methyl ester] | 4 | 0 | 42 | 0 | 98 | 100
Cc1ccc(C(=O)Nc2ccc(CCCC(=O)Oc3ccc(C(=O)OCc4ccccc4)cc3)cc2C(=O)N(C)C)c(-c2ccc(C(F)(F)F)cc2)n1 [Compound 1-80, 4-[4-(3-dimethylcarbamoyl-4-{[6-methyl-2-(4-trifluoromethylphenyl)pyridine-3-carbonyl]amino}phenyl)butyryloxy]benzoic acid benzyl ester] | 5 | 0 | 4 | 0 | 100 | 101
COC(=O)c1ccc(-c2nc(C)ccc2C(=O)Nc2ccc(CCCC(=O)Oc3c(C)cc(C(=O)OC)cc3Cl)cc2C(=O)N(C)C)cc1 [Compound 4-1, 3-chloro-4-[4-(3-dimethylcarbamoyl-4-{[2-(4-methoxycarbonylphenyl)-6-methylpyridine-3-carbonyl]amino}phenyl)butyryloxy]-5-methylbenzoic acid methyl ester] | 0 | 0 | 25 | 0 | 99 | 101
COC(=O)c1ccc(OC(=O)CCCc2ccc(NC(=O)c3ccccc3-c3ccc(C(F)(F)F)cc3)c(C(=O)N(C)C)c2)c(OC)c1 [Compound 1-12, 4-(4-{3-dimethylcarbamoyl-4-[(4'-trifluoromethylbiphenyl-2-carbonyl)amino]phenyl}butyryloxy)-3-methoxybenzoic acid methyl ester] | 0 | 0 | 10 | 0 | 100 | 103
COc1cccc(COC(=O)c2ccc(OC(=O)CCCc3ccc(NC(=O)c4ccccc4-c4ccc(C(F)(F)F)cc4)c(C(=O)N(C)C)c3)cc2)c1 [Compound 1-97, 4-[4-(3-dimethylcarbamoyl-4-{(4'-trifluoromethylbiphenyl-2-carbonyl)amino}phenyl)butyryloxy]benzoic acid 3-methoxybenzyl ester] | 13 | 7 | 49 | 0 | 100 | 104
COC(=O)c1ccc(OC(=O)C2CCN(c3ccc(NC(=O)c4ccccc4-c4ccc(C(F)(F)F)cc4)c(C(=O)N(C)C)c3)CC2)cc1 [Compound 3-1, 1-(3-dimethylcarbamoyl-4-[(4'-trifluoromethylbiphenyl-2-carbonyl)amino]phenyl}piperidine-4-carboxylic acid 4-methoxycarbonylphenyl ester] | 2 | 0 | 63 | 6 | 98 | 102
Cc1ccc(C(=O)Nc2ccc(CCCC(=O)Oc3ccc(C(=O)OC(C)C)cc3)cc2C(=O)N(C)C)c(-c2ccc(C(F)(F)F)cc2)n1 [Compound 1-81, 4-[4-(3-dimethylcarbamoyl-4-{[6-methyl-2-(4-trifluoromethylphenyl)pyridine-3-carbonyl]amino}phenyl)butyryloxy]benzoic acid isopropyl ester] | 4 | 1 | 51 | 2 | 99 | 97
COC(=O)c1cc(C)c(OC(=O)CCCc2ccc(NC(=O)c3ccc(C)nc3-c3ccc(C(F)(F)F)cc3)c(C(=O)N(C)C)c2)c(C)c1 [Compound 1-65, 4-[4-(3-dimethylcarbamoyl-4-{[6-methyl-2-(4-trifluoromethylphenyl)pyridine-3-carbonyl]amino}phenyl)butyryloxy]-3,5-dimethylbenzoic acid methyl ester] | 8 | 0 | 98 | 94 | 104 | 104
COC(=O)COC(=O)c1ccc(OC(=O)CCCc2ccc(NC(=O)c3ccccc3-c3ccc(C(F)(F)F)cc3)c(C(=O)N(C)C)c2)cc1 [Compound 1-86, 4-[4-(3-dimethylcarbamoyl-4-{(4'-trifluoromethylbiphenyl-2-carbonyl)amino}phenyl)butyryloxy]benzoic acid methoxycarbonylmethyl ester] | 0 | 0 | 40 | 0 | 99 | 103
COC(=O)c1ccc(OC(=O)CCCc2ccc(NC(=O)c3ccccc3-c3ccc(C(F)(F)F)cc3)c(C(=O)N(C)C)c2)cc1Cl [Compound 1-18, 2-chloro-4-(4-{3-dimethylcarbamoyl-4-[(4'-trifluoromethylbiphenyl-2-carbonyl)amino]phenyl}butyryloxy)benzoic acid methyl ester] | 0 | 0 | 0 | 0 | 101 | 98
